# Experimental data reported in paper PMC3084506 (Archives of Drug Information, 2011).
# Entries after “also recorded” stand apart in the source; their conditions may differ. Read-outs that look alike come from different tables or passages of the source. Square brackets hold non-standard residues; d marks the D form. Peptide text beside a SMILES is read from it. Sar = CNCC(=O)O
# Experiments:
# MDCKI cells = assay: Effect of inhibitors on ciprofloxacin bidirectional transport in MDCKI cells; details: 25 µM ciprofloxacin, inhibitor concentrations as in Figure 4 legend
# [1] = cited from earlier work
# P-gp (L-MDR1 cells) [2] = molecular target: T1, P-gp (L-MDR1 cells) (Homo sapiens, UniProt P08183); assay: Bidirectional transport study in L-MDR1 cells; type: in vitro ADME; details: LLC-PK1
# T1 sequence (P08183 whole entry): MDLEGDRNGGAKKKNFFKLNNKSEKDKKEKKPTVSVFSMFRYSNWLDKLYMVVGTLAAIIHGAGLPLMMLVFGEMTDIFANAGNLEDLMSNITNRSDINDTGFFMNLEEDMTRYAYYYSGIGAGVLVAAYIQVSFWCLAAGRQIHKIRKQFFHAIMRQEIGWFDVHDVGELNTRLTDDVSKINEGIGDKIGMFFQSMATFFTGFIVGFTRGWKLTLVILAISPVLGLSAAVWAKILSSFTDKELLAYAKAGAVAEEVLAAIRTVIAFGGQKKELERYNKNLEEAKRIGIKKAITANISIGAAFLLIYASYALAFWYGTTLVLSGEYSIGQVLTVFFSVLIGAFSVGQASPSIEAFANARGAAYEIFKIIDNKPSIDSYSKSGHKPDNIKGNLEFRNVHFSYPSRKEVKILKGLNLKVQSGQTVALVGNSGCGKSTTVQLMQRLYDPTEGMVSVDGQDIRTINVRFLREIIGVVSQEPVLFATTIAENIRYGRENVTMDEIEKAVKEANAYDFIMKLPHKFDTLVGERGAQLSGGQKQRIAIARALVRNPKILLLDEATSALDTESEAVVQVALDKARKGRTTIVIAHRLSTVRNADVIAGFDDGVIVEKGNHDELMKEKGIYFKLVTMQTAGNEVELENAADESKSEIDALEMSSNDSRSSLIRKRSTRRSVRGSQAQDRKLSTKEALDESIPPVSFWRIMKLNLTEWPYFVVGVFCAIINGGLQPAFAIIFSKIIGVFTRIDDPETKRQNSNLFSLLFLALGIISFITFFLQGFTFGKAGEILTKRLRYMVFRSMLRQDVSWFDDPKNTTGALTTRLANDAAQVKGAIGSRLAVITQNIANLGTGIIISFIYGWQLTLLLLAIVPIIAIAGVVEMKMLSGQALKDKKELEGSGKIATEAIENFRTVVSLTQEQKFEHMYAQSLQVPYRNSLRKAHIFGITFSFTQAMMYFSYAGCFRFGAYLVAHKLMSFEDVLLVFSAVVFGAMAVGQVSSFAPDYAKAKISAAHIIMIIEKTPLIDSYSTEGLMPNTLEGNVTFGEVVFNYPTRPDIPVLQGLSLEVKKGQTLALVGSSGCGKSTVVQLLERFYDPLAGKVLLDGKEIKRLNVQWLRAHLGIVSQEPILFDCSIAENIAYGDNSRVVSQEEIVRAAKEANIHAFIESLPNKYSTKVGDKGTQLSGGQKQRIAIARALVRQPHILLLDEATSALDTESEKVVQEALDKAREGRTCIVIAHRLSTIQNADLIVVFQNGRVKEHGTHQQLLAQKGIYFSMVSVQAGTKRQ
# in vitro = details: human, MDCK-MDR1
# [3] = Bidirectional transport study in LLC-PK1 cells; type: in vitro ADME; details: pig
# [4] = Bidirectional transport study in MDCKI cells; type: in vitro ADME, canine; details: dog, MDCK
# MRP1 (L-MRP1 cells) = MRP1 (L-MRP1 cells) (Homo sapiens, UniProt P33527); assay: Bidirectional transport study in L-MRP1 cells; type: in vitro ADME; details: LLC-PK1
# MRP1 (L-MRP1 cells), sequence (P33527 whole entry): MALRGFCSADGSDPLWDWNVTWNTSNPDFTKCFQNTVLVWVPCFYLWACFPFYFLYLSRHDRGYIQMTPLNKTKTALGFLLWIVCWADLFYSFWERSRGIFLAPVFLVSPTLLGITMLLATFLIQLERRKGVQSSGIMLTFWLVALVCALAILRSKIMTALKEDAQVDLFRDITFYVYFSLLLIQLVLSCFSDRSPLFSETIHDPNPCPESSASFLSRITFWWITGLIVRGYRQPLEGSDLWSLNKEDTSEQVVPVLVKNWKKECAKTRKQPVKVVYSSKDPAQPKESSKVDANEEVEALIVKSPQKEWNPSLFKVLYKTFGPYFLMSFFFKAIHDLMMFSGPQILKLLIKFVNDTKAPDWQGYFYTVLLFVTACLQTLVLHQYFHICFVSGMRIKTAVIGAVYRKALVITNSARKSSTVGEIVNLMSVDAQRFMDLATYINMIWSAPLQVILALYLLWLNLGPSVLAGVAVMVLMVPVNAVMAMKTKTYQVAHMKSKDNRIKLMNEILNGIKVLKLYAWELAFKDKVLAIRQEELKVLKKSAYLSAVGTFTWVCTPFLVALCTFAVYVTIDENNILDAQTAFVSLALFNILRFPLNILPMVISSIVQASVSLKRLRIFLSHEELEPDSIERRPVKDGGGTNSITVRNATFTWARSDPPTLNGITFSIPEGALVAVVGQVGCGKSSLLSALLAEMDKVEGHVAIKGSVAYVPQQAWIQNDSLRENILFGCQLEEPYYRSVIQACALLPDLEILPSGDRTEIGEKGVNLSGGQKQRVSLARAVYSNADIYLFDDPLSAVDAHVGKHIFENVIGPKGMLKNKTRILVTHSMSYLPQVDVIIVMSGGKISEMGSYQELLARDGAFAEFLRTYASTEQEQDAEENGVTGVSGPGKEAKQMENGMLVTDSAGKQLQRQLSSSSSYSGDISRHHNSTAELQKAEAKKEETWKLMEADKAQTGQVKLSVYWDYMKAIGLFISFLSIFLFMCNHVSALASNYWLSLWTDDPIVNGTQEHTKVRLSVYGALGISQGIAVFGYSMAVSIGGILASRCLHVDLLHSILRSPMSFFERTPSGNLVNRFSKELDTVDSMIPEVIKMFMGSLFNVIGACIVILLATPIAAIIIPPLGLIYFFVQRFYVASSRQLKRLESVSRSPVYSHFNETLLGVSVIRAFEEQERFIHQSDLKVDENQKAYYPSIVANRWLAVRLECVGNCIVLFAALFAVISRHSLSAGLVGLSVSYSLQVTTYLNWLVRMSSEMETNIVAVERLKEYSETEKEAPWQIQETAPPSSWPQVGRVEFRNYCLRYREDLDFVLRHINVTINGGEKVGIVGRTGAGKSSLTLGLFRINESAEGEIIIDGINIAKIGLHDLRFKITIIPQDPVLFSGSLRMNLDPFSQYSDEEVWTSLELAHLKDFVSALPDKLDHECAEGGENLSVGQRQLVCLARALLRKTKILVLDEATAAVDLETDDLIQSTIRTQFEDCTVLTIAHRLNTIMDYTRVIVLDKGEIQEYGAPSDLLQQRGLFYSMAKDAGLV
# [5] = humans; cited from earlier work
# OAT3 = details: cited from earlier work
# P-gp (MDCKII-MDR1 cells) = P-gp (MDCKII-MDR1 cells) (Homo sapiens, UniProt P08183); details: MDCKII vs MDCKII-MDR1; cited from earlier work
# P-gp (MDCKII-MDR1 cells), sequence (P08183 whole entry): as the sequence (P08183 whole entry) above
# P-gp (MDCKI-MDR1 cells) [6] = details: MDCKI-MDR1 and L-MDR1 cells; cited from earlier work
# P-gp (L-MDR1 cells) [7] = molecular target: T1, P-gp (L-MDR1 cells); details: LLC-PK1 vs L-MDR1, cited from earlier work
# P-gp (MDCKI-MDR1 cells) [8] = details: studies done in our lab
structure (smiles),measurement,setting,value
COc1cc2c(cc1OC)CN(CCc1ccc(NC(=O)c3cccc4c(=O)c5cccc(OC)c5[nH]c34)cc1)CC2 [GG918],effect on ciprofloxacin transport in MDCKI cells (in words),MDCKI cells,no significant effects
O=C(O)c1cn(C2CC2)c2cc(N3CCNCC3)c(F)cc2c1=O [ciprofloxacin],eliminated via intestinal secretion,[1],at least 10%
CN(CC(=O)O)C(=O)CN [glycosarcosine] (H-Gly-[Sar]-OH),effect on ciprofloxacin transport in MDCKI cells (in words),MDCKI cells,no significant effects; also recorded: no effect
OC[C@@H](O)[C@@H](O)[C@H](O)[C@H](O)CO [mannitol],Papp at 1 h,P-gp (L-MDR1 cells) [2],~1.2 ×10⁻⁶ cm/s
same,Papp at 1 h,in vitro,~0.5 ×10⁻⁶ cm/s
same,Papp at 1 h,[3],~1.3 ×10⁻⁶ cm/s
same,Papp at 1 h,[4],~0.5 ×10⁻⁶ cm/s
same,Papp at 1 h,MRP1 (L-MRP1 cells),~3.5 ×10⁻⁶ cm/s
CCCN(CCC)S(=O)(=O)c1ccc(C(=O)O)cc1 [probenecid],effect on ciprofloxacin renal secretion,[5],competitively inhibit
same,interaction with OAT3,OAT3,inhibitor of OAT3
C=C[C@H]1C[N@@]2CC[C@H]1C[C@@H]2[C@@H](O)c1ccnc2ccc(OC)cc12 [quinidine],effect on ciprofloxacin transport in MDCKI cells (in words),MDCKI cells,no significant effects
COc1cc(Cc2cnc(N)nc2N)cc(OC)c1OC [trimethoprim],difference in transport between MDCKII and MDCKII-MDR1 cells,P-gp (MDCKII-MDR1 cells),no difference
same,P-gp substrate status from transport studies,P-gp (MDCKI-MDR1 cells) [6],substrate of P-gp
CC[C@]1(O)C[C@@H]2CN(CCc3c([nH]c4ccccc34)[C@@](C(=O)OC)(c3cc4c(cc3OC)N(C)[C@H]3[C@@](O)(C(=O)OC)[C@H](OC(C)=O)[C@]5(CC)C=CCN6CC[C@]43[C@@H]65)C2)C1 [vinblastine],effect on ciprofloxacin transport in MDCKI cells (in words),MDCKI cells,no significant effects
same,difference in transport between LLC-PK1 and L-MDR1 cells,P-gp (L-MDR1 cells) [7],no difference
same,difference in transport between LLC-PK1 and L-MDR1 cells,P-gp (L-MDR1 cells) [7]; listed as Vinblastine,did not show differences
same,P-gp substrate status from transport studies,P-gp (MDCKI-MDR1 cells) [8],substrate of P-gp
